Measured values taken from US9458161B1, “TSPO ligands for cancer imaging and treatment” (Vanderbilt University, priority 2011, dated 2016).

Columns and labels:
TSPO [1] = biological target: T1, TSPO (Mus musculus, UniProt P50637); experiment: TSPO-PET with 18F-VUIIS1008 in Lrig1-CreERT2;Apcfl/+ mouse model of colorectal cancer; format: in vivo
T1 construct: from tissue; host or cells: colon tumours (Lrig1-CreERT2;Apcfl/+ mice) and pancreatic tumours (Ptf1a-cre;LSL-KrasG12D;Tgfbr2fl/fl mice) in living mice
Procedure: All studies were conducted in accordance with federal and institutional guidelines. Lrig1-CreERT2/+mice (35) were crossed to Apcfl/+mice to generate Lrig1-CreERT2/+; Apcfl/+mice. Six to eight week old mice were injected with 2 mg tamoxifen (Sigma Aldrich) intraperitoneally for three consecutive days to induce tumor formation. Mice were imaged approximately 100 days after injection of tamoxifen and then sacrificed
Colonoscopy (KARL STORZ-SCB Endoscope System) was performed monthly beginning two months after tamoxifen induction. Mice are anesthetized and immobilized using 2% isofluorane anesthesia in 100% oxygen at 2 L/min. Tumor formation within a single mouse was tracked over time. Upon visual detection of distal colon tumors mice were designated for PET imaging.
PET imaging was performed using a dedicated small animal PET scanner (Concorde Microsystems Focus 220) as described. Briefly, mice were maintained under 2% isofluorane anesthesia in 100% oxygen at 2 L/min and kept warm via a circulating water heating pad during the PET scan. Animals were administered 7.4-9.3 MBq of [^18F]-VUIIS1008 intravenously and allowed free access to food and water during a 50 minute uptake period and a 20 minute PET acquisition. Scans were reconstructed using OSEM3D/MAP.

TSPO [2] = biological target: T2, TSPO (Rattus norvegicus, UniProt P16257); experiment: Radioligand displacement of [3H]PK 11195 in C6 glioma cell / tumor lysate; format: binding; set-up: from tissue; host or cells: C6 glioma tumour and normal brain / other tissues of living rats
Procedure: Given our focus of targeting TSPO expressed in tumors, affinity assays will be conducted in whole and fractionated tumor lysate.
In this Example Glioma-bearing rats were imaged with [^18F]PBR06 in a microPET system. Dynamic acquisitions were acquired simultaneously upon injection of 70-100 MBq/0.2 mL [^18F]PBR06. Over the course of scanning, arterial blood was collected to derive the input function, with HPLC radiometabolite analysis performed on selected samples for arterial input function correction. Compartmental modeling of the PET data was performed using the corrected arterial input function. Specific tumor cell binding of PBR06 was evaluated by radioligand displacement of [^3H]PK 11195 with PBR06 in vitro and by displacement of [^18F]PBR06 with excess PBR06 in vivo. Immediately following imaging, tumor tissue and adjacent healthy brain were harvested for assay of TSPO protein levels by western blotting and immunohistochemistry.
Radioligand displacement of the high-affinity isoquinoline carboxamide TSPO ligand [^3H]PK 11195 was used to evaluate the specific binding of the non-radioactive analogue PBR06 in C6 glioma cell line homogenates in vitro (FIG. 10). […]

TSPO [3] = biological target: T2, TSPO; experiment: Dynamic microPET of [18F]VUIIS-1008 in C6 glioma-bearing rats, with compartmental modeling and in vivo displacement; set-up: from tissue; host or cells: C6 glioma tumour and normal brain / other tissues of living rats; conditions: for VT (calculated): mean ± SE; for tracer distribution tumor vs normal brain (in words): C6 glioma
Procedure: Dynamic microPET imaging can be performed as in tumor-bearing and non-tumor-bearing rats. […] […] For displacement studies, ‘cold’ analog (10 mg/kg) are injected via jugular catheter 30 min after radiotracer administration. Prior to PET scanning, tumors are localized in tumor-bearing rats using MRI, including T2-weighted and diffusion-weighted scans. For longitudinal studies, tumor volumes are measured using a three-dimensional, T2-weighted fast spin-echo sequence on a Varian 9.4 T horizontal bore imaging system.
A 3-compartment, 4-rate constant kinetic model can be used to characterize [^18F]PBR06 pharmacokinetics. […] These rate constants can be used to calculate the total volume of distribution (VT) in tissues of interest. Modeling will be carried out for whole brain (excluding tumor) and tumor by fitting time-activity curves (TACs) of each region.
Before PET imaging with ^18F-VUIIS1008, brain tumors were localized with T2-weighted MRI. […] After the initial spike in radioactivity consistent with tracer injection, ^18F-VUIIS1008 rapidly cleared from the plasma. Imaging-matched brains were processed for staining and immunohistochemistry. Using standard hematoxylin and eosin staining to localize the tumor, the present inventors discovered that TSPO expression was significant higher in tumor than in the adjacent healthy brain.
In order to fully evaluate the novel performance of ^18F-VUIIS1008, we have also determined ^18F-VUIIS 1008 pharmacodynamics with arterial input function.

[4] = 1-tissue model, tumor, mean (SE in next line)

CCc1cc(CC)n2nc(-c3ccc(OCCF)cc3)c(CC(=O)N(CC)CC)c2n1 [[^18F]VUIIS-1008]
tracer uptake in distal colon (in words) (TSPO [1]; Lrig1-CreERT2;Apcfl/+ mice with colonoscopy confirmed tumors): increased, focal uptake in the distal colon compared to adjacent non-tumor tissue and wild type controls
tracer uptake in colon (in words) (TSPO [1]; wild type mice): low tracer uptake in the colon
binding affinity (in words) (TSPO [2]; tumor lysate / C6 cell lysate): improved binding affinity in tumor lysate compared to PBR06 or DPA-714
binding affinity (TSPO [2]; whole tumor lysate): ~1 nM
K1 (TSPO [3]; 1-tissue model, brain, mean): 0.3161 mL/g/min
k2 (TSPO [3]; 1-tissue model, brain, mean): 0.3048 min⁻¹
VT (calculated) (TSPO [3]; 1-tissue model, brain): 1.3 ± 0.2
K1 (TSPO [3]; [4]): 0.3535 mL/g/min
k2 (TSPO [3]; [4]): 0.0964 min⁻¹
VT (calculated) (TSPO [3]; 1-tissue model, tumor): 3.6 ± 0.6
K1 (TSPO [3]; 2-tissue model, brain, mean): 0.5856 mL/g/min
k2 (TSPO [3]; 2-tissue model, brain, mean): 2.0217 min⁻¹
k3 (TSPO [3]; 2-tissue model, brain, mean): 0.2903 min⁻¹
k4 (TSPO [3]; 2-tissue model, brain, mean): 0.0912 min⁻¹
VT (calculated) (TSPO [3]; 2-tissue model, brain): 1.7 ± 0.4
K1 (TSPO [3]; 2-tissue model, tumor, mean): 0.5448 mL/g/min
k2 (TSPO [3]; 2-tissue model, tumor, mean): 1.2413 min⁻¹
k3 (TSPO [3]; 2-tissue model, tumor, mean): 0.1300 min⁻¹
k4 (TSPO [3]; 2-tissue model, tumor, mean): 0.0234 min⁻¹
VT (calculated) (TSPO [3]; 2-tissue model, tumor): 4.6 ± 0.8
K1 (TSPO [3]; 3-tissue model, brain, mean): 0.6925 mL/g/min
k2 (TSPO [3]; 3-tissue model, brain, mean): 3.7619 min⁻¹
k3 (TSPO [3]; 3-tissue model, brain, mean): 0.8194 min⁻¹
k4 (TSPO [3]; 3-tissue model, brain, mean): 0.2569 min⁻¹
k5 (TSPO [3]; 3-tissue model, brain, mean): 0.5314 min⁻¹
k6 (TSPO [3]; 3-tissue model, brain, mean): 0.1748 min⁻¹
VT (calculated) (TSPO [3]; 3-tissue model, brain): 1.4 ± 0.2
K1 (TSPO [3]; 3-tissue model, tumor, mean): 0.6449 mL/g/min
k2 (TSPO [3]; 3-tissue model, tumor, mean): 2.9459 min⁻¹
k3 (TSPO [3]; 3-tissue model, tumor, mean): 0.4597 min⁻¹
k4 (TSPO [3]; 3-tissue model, tumor, mean): 0.1371 min⁻¹
k5 (TSPO [3]; 3-tissue model, tumor, mean): 0.2304 min⁻¹
VT (calculated) (TSPO [3]; 3-tissue model, tumor): 6.4 ± 1.8
k6 (TSPO [3]; 3-tissue model, tumor, mean, listed as [18F]VUIIS1008): 0.0574 min⁻¹
stability in plasma, HPLC radiometabolite assay (in words) (TSPO [3]; 90 min dynamic PET scan): high stability of this probe in the 90 min dynamic PET scan
tracer distribution tumor vs normal brain (in words) (TSPO [3]): robust tumor uptake, yet very little normal brain uptake
tracer distribution tumor vs normal brain (in words) (TSPO [3]; listed as 18F-VUIIS1008): most of the uptake in the brain was localized to the tumor, with only modest accumulation in the adjacent, normal brain
clearance and accumulation compared with 18F-DPA714 (in words) (TSPO [3]; glioma-bearing rats): a similar clearance and accumulation in brain, while a faster clearance and a slower accumulation in tumor
displacement from the tumor by 'cold' VUIIS-1008 (in words) (TSPO [3]; in vivo displacement): no detectable displacement from the tumor
increase in tracer levels in plasma on displacement with 'cold' VUIIS-1008 (TSPO [3]; in vivo displacement): 25 fold
